From patent US10731187B2, “Recombinant strain producing O-aminobenzoate and fermentative production of aniline from renewable resources via 2-aminobenzoic acid” (Covestro Deutschland AG, priority 2014, dated 2020)
In brackets after ≈: the same amount, converted by molar mass.

Experiments:
[1] = test system: Corynebacterium glutamicum; test: Shake flask growth (OD600) with supplementation of toxic substances; assay type: cell-based, Corynebacterium glutamicum DSM 20300 (=ATCC 13032)
Text: (§1) Several strains commonly used industrial biotechnology were investigated regarding their natural tolerance towards oAB and to organic solvents in question for later product extraction (e.g. 1-dodecanol or octanol). Furthermore, the influence of the used pH value was investigated. It was known from previous experiments that at least for E. coli the toxicity of aromatic compounds depends strongly on the pH value, probably because protonated acids can much more efficiently penetrate the cell membrane and accordingly their toxicity rises severely. The extraction of oAB in an organic phase is supposed to work best at low pH values, close to the isoelectric point of oAB. The most relevant host strains considered were: Escherichia coli K12, Corynebacterium glutamicum DSM 20300 (=ATCC 13032), Pseudomonas putida KT2440, Bacillus subtilis subsp. 168, Saccharomyces cerevisiae DSM 70449, and Pichia pastoris X33 (DSM 70382).
(§2) To investigate the chosen strains towards the mentioned characteristics shake flasks and small scale fermentation experiments were performed and the organisms were supplemented with the toxic substances (aminobenzoates, solvents) at differed concentrations, different pH values, and the behaviour of the strains was studied.
The organisms (commercially obtained from ordered from the DSMZ, German collection of Microorganisms and cell cultures, Braunschweig) were firstly cultivated in shake flasks and in each of them in suiting, published standard minimal medium in order to characterize their growth under standard cultivation conditions (C. glutamicum: Preculture: BHI medium (37 g/L; Brain-Heart-Infusion; Becton Dickenson and Company, Heidelberg); Main culture pH 7: CGXII-MOPS medium (42 g/L MOPS buffer, 20 g/L (NH4)2SO4, 5 g/L urea (Fisher Scientific, Schwerte), 1 g/L KH2PO4, 1 g/L K2HPO4, 0.25 g/L MgSO4.7H2O (Merck, Darmstadt), 0.01 g/L CaCl2, and 10 g/L glucose (autoclaved separately). The pH was adjusted to 7 with 5 mol/L sodium hydroxide solution. […]

B. subtilis = test: as above; assay type: cell-based, Bacillus subtilis subsp. 168; details: 3 g/L oAB, pH 7 (MOPS), 100-mL shake flask, 25 h
Text: as §1
as §2, with “studied. […]” for “studied.”

[2] = test system: Corynebacterium glutamicum; test: Small-scale fermentation (1 L fermenters, pH 7, glucose fed) with supplementation; assay type: cell-based; details: pH 7, fermenter
Text: The results obtained in the shake flask experiments with C. glutamicum were reproduced in small-scale fermenters (FIG. 21). […]. The glucose-fed allowed the strain to grow to higher cell densities.
. This confirmed the results obtained in shake flasks (see FIG. 22). […] It was concluded that 1-dodecanol is a suitable oAB extraction solvent.
In a further experiment the concentration of oAB was increased to investigate the effect on the C. glutamicum strain. The four fermenters were hereto supplemented with 0 g/L, 15 g/L, 35 g/L and 80 g/L of oAB. […] The rest of the cultivation conditions was kept as described above. […] Cultures supplemented with 15 g/L oAB have shown an extensive lag-phase over 34-48 h before growth was recovered and cells entered the exponential phase (see FIG. 24). An oAB degradation during fermentation was again excluded by HPLC measurements of culture supernatants (data not shown).

[3] = Solubility of AA in aniline; assay type: physicochemical
Text: Aniline is a much better solvent for AA than dodecanol and, being also the product of the decarboxylation, its use presented great advantages compared to 1-dodecanol.

[4] = Solubility of oAB in fermentation broth slurry; assay type: physicochemical; details: fermentation broth of Corynebacterium glutamicum; room temperature, pH 4.5, fermentation broth
Description: An industrial sugar source was used for fermentation of Corynebacterium glutamicum. 100 ml of the broth with a content of 21.5 g/L glucose, 3.7 g/L lactate was mixed with 10 g anthranilic acid in a 250 ml laboratory reactor. […] Afterwards 9.12 g NaOH (32%) were added in 4 portions until a solution was present. […] Following […] HCl (37%) were added within 1 hour. By dosing of HCl first nucleation took place as from a pH-value of 5.8. The number of crystals increased during dosing. […] Afterwards the slurry was stirred for 1 hour. Finally the slurry was filtered.

Nc1ccccc1C(=O)O [oAB, 2-aminobenzoic acid]
growth (OD600) ([1]; 3 g/L oAB, pH 7 (MOPS), 100-mL shake flask, 25 h): not inhibited | growth inhibition ([1]; 5 g/L, pH 5 and pH 7, shake flask): No growth inhibition | tolerance for o-aminobenzoate ([1]; Corynebacterium glutamicum ATCC13032): high tolerance | growth (OD600) (B. subtilis): strongly decreased | growth (OD600) ([2]; 7 g/L): prolonged lag-phase but finally same cell densities were reached | lag-phase before growth was recovered ([2]; 15 g/L oAB (ammonium salt)): 34 to 48 h | growth (OD600) ([2]; 35 g/L oAB (ammonium salt)): growth inhibition | growth (OD600) ([2]; 80 g/L oAB (ammonium salt), over 54 hours): dying (lysis) of the cells | AA that could be dissolved in aniline ([3]; 50° C.): up to 40% | AA that could be dissolved in aniline ([3]; 90° C.): up to 50% | AA that could be dissolved in aniline ([3]; room temperature (20° C.)): up to 30% | solubility [4]: ~4500 µg/mL (≈ 32.8 mM)
